The target in this test is T1, Neutrophil elastase (Homo sapiens, UniProt P08246).
T1 sequence (P08246 whole entry): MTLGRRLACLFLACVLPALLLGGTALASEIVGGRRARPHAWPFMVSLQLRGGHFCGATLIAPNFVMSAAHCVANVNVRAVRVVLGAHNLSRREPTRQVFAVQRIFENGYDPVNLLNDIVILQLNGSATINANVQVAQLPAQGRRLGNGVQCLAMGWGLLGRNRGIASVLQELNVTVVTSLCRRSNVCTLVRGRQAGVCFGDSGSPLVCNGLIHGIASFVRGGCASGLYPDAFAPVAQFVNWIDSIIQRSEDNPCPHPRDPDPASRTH
Kind of test: Inhibition of human neutrophil elastase using chromogenic substrate (N-MeOSuc-Ala-Ala-Pro-Val-p-nitroanilide after 120 mins.

By IC50 is commonly meant the midpoint of a concentration-inhibition curve. A higher IC50 goes with weaker potency in that assay.

`Cc1oc(=O)n(Cc2ccccc2)c1O`: the IC50 is over 500 µM.
Then `COc1ccc(C(=O)n2c(O)c(C)oc2=O)cc1`, with over 500 µM.

The values above are taken from BindingDB's records for doi:10.1016/j.bmcl.2012.04.093 (University of Lisbon, 2012).
